For one assay, the target named is T1, Cathepsin K (Homo sapiens, UniProt P43235).
T1 sequence (P43235 whole entry): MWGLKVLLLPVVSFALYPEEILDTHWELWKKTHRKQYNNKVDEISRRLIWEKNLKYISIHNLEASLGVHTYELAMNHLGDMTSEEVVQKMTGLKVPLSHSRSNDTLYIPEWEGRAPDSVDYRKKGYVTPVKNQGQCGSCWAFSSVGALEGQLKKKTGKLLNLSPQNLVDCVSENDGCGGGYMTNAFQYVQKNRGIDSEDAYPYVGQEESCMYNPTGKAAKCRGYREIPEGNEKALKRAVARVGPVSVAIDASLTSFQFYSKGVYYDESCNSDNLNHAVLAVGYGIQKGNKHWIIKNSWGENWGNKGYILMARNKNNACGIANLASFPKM
The experiment in a line: Inhibition of human recombinant cathepsin K expressed in baculovirus by fluorescence assay.

A further assay addresses Cathepsin S (Homo sapiens, UniProt P25774). The experiment in a line: Inhibition of human recombinant cathepsin S expressed in baculovirus by fluorescence assay.
In the next assay the target is Procathepsin L (Homo sapiens, UniProt P07711). The experiment in a line: Inhibition of human cathepsin L by fluorescence assay.
Chain of Procathepsin L (P07711 whole entry): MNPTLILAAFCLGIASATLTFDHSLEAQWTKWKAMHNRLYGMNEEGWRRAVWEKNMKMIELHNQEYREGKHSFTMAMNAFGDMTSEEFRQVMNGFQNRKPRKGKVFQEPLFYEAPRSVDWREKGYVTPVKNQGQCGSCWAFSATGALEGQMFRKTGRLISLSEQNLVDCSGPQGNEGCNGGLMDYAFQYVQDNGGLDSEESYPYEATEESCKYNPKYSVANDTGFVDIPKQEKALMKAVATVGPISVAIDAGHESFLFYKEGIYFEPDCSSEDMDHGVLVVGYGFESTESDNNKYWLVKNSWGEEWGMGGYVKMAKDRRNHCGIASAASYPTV

Chain of Cathepsin S (P25774 whole entry): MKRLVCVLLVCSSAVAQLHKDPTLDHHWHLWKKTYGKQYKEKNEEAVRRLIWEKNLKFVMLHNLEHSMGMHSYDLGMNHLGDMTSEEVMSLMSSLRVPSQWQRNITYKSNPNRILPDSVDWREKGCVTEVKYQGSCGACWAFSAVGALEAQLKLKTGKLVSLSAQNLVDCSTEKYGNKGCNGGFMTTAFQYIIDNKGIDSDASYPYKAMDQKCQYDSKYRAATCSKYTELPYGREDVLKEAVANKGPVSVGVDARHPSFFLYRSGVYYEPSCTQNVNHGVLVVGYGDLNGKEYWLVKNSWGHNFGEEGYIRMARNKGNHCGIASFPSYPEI

As a reminder, the Ki is the equilibrium dissociation constant of an inhibitor or competing ligand from its target. Turning to `CCCCS(=O)(=O)Nc1ccc(C(=O)N[C@@H](CC2(C)CCCC2)C(=O)N[C@@H]2C(=O)CO[C@H]2CC)cc1`, the inhibition constant (Ki) is 1500 nM at Cathepsin K, 3.4 nM at Cathepsin S and 21000 nM on Procathepsin L.

Turning to `CC[C@@H]1OCC(=O)[C@H]1NC(=O)[C@H](CC1(C)CCCC1)NC(=O)c1ccc(NS(C)(=O)=O)c(F)c1`, the Ki at Cathepsin K was 700 nM; on Cathepsin S it was 16 nM; at Procathepsin L, 7800 nM.

On to `CC[C@@H]1OCC(=O)[C@H]1NC(=O)[C@H](CC1(C)CCCC1)NC(=O)c1ccc(NS(=O)(=O)c2ccncc2)cc1`, for which the Ki on Cathepsin K stood at 1100 nM; on Cathepsin S, 2.7 nM; on Procathepsin L, 13000 nM.

Turning to `CC[C@@H]1OCC(=O)[C@H]1NC(=O)[C@H](CC1(C)CCCC1)NC(=O)c1ccc(NS(=O)(=O)N(C)C)cc1`, the Ki at Cathepsin K amounted to 300 nM; at Cathepsin S it was 5.3 nM; at Procathepsin L it was 16000 nM.

In the case of `CC[C@@H]1OCC(=O)[C@H]1NC(=O)[C@H](CC(C)(C)C)NC(=O)c1ccsc1`, the inhibitory constant (Ki) is 318 nM at Cathepsin K, 31 nM on Cathepsin S and 10000 nM at Procathepsin L.

For `CC[C@@H]1OCC(=O)[C@H]1NC(=O)[C@H](CC1(C)CCCC1)NC(=O)c1ccc(NS(=O)(=O)C(F)(F)F)cc1`, the Ki was 1200 nM at Cathepsin K, 8.3 nM on Cathepsin S and 15000 nM on Procathepsin L.

For the compound `CC[C@@H]1OCC(=O)[C@H]1NC(=O)[C@H](CC1(C)CCCC1)NC(=O)c1ccc(NS(=O)(=O)c2nccn2C)cc1`, the figures for the Ki on Cathepsin K, on Cathepsin S and at Procathepsin L were 640 nM, 4.5 nM and 24000 nM, respectively.

As to `CC[C@@H]1OCC(=O)[C@H]1NC(=O)[C@H](CC1(C)CCCC1)NC(=O)c1ccc(NS(C)(=O)=O)cc1`, the figures for the Ki at Cathepsin K, on Cathepsin S and on Procathepsin L were 290 nM, 2.6 nM and 12000 nM, respectively.

For `CC[C@@H]1OCC(=O)[C@H]1NC(=O)[C@H](CC1(C)CCCC1)NC(=O)c1ccc(NS(=O)(=O)c2cccnc2)cc1`, the inhibition constant (Ki) was 570 nM on Cathepsin K, 2.1 nM at Cathepsin S and 14000 nM at Procathepsin L.

Consider `CC[C@@H]1OCC(=O)[C@H]1NC(=O)[C@H](CC1(C)CCCC1)NC(=O)c1ccc(NS(C)(=O)=O)nc1`, for which the Ki on Cathepsin K amounted to 1200 nM; at Cathepsin S, 63 nM; at Procathepsin L it was 14000 nM.

For `CC[C@@H]1OCC(=O)[C@H]1NC(=O)[C@H](CC1(C)CCCC1)NC(=O)c1ccc(N(C)S(C)(=O)=O)cc1`, the Ki stood at 98 nM on Cathepsin K, 110 nM at Cathepsin S and 11000 nM at Procathepsin L.

Regarding `CC[C@@H]1OCC(=O)[C@H]1NC(=O)[C@H](CC1(C)CCCC1)NC(=O)c1ccc(NS(=O)(=O)c2nc(C)cs2)cc1`, the inhibitory constant (Ki) amounted to 3000 nM on Cathepsin K, 13 nM at Cathepsin S and 27000 nM on Procathepsin L.

`CC[C@@H]1OCC(=O)[C@H]1NC(=O)[C@H](CC1(C)CCCC1)NC(=O)c1ccc(NS(=O)(=O)c2cccc(OC)c2)cc1`: the Ki at Cathepsin K worked out at 270 nM; at Cathepsin S, 1 nM; at Procathepsin L, 14000 nM.

In the case of `CC[C@@H]1OCC(=O)[C@H]1NC(=O)[C@H](CC1(C)CCCC1)NC(=O)c1ccc(NS(C)(=O)=O)cc1OC`, the Ki on Cathepsin K was determined as 5000 nM; on Cathepsin S, 330 nM; on Procathepsin L, 29000 nM.

For the compound `CC[C@@H]1OCC(=O)[C@H]1NC(=O)[C@H](CC1(C)CCCC1)NC(=O)c1ccc(NS(=O)(=O)c2ncc(C)s2)cc1`, the values for the Ki on Cathepsin K, on Cathepsin S and on Procathepsin L were 2300 nM, 8.6 nM and 17000 nM, respectively.
